This passage reports Phage binding results from patent publication US12708673B2, “Methods and compositions related to peptides and proteins with c-terminal elements” (Sanford Burnham Prebys Medical Discovery Institute, priority 2008, dated 2026).

In the experiment the test system is primary cells derived from normal mouse organs. Nature of the experiment: RPARPAR phage binding to primary cell suspensions of mouse organs at 4° C. ex vivo. The class given is cell-based. The conditions noted are these: panel of normal mouse organs. The protocol:
FIG. 15A: Binding of RPARPAR (SEQ ID NO:2) phage to the cultured cells at 4° C. in vitro. FIG. 15B: Binding of RPARPAR (SEQ ID NO:2) phage to primary cell suspensions of mouse organs at 4° C. ex vivo. FIGS. 15C and 15D: Tissue distribution of intravenously injected RPARPAR (SEQ ID NO:2) phage after 20 minutes of circulation time. FIG. 15C: Phage was quantified by titration, tissue binding is expressed as fold G7 phage. Statistical analysis was performed by Student's t-test (c). n=3; error bars indicate s.d.; double asterisk, p<0.01, triple asterisk, p<0.001. FIG. 15D (panels d and e): Immunofluorescence localization of T7 phage (light coloring) in lung sections of mice injected intravenously with RPARPAR (SEQ ID NO:2) (d) or G7 (e) phage. Widespread immunoreactivity is present in the lungs of mice injected with RPARPAR (SEQ ID NO:2) (arrowheads in d) but not G7 (with occasional labeling seen in vessels, arrows in e). Scale bar: 50 μm.
Phage display. For in vivo phage display, mice were injected intravenously with 10^10 plaque-forming units (pfu) of T7 phage followed by perfusion of the circulatory system and determination of the bound phage in target organs by titration. For cell binding studies on cultured cells (in vitro display) and organ-derived cell suspensions (ex vivo display), the cells were incubated with 10^9 pfu of phage at 4° C., washed, lysed, and quantified by titration. […]

Consider RPARPAR [RPARPAR phage], for which the Phage binding result is “also bound”.
